From patent publication EP4524159A1, “ANTIBODY AND USE THEREOF” (Sichuan Huiyu Pharmaceutical Co., Ltd., priority 2022, dated 2023) come the findings set out here.

Square brackets hold non-standard residues; d marks the D form. Peptide text beside a SMILES is read from it. * marks the point of attachment. Dolaproine = CO[C@@H]([C@@H]1CCCN1)[C@@H](C)C(=O)O; Dil = CC[C@H](C)[C@H](NC)[C@@H](CC(=O)O)OC; X1 = C[C@@H](N*)[C@@H](O)c1ccccc1; NMeV = CN[C@H](C(=O)O)C(C)C

Assay type in all cases: cell-based
Test [1] relates to HCT116. The test can be described thus: In vitro killing by chimeric antibody-vc-MMAE conjugate (CellTiter-Glo, 120 h). The protocol: (§1) The specific steps were: Colorectal cancer cells HCT116, breast cancer cells MDA-MB-231, prostate cancer cells PC3, MCF7 cells were respectively counted, adjusted to 3000 cells/well, and plated onto 96-well plates overnight; Conjugates were added at a final concentration of 8 nM to 0.000512 nM (a 5-fold dilution across 7 concentration points), totaling 200 µL, cultured at 37 °C in a CO2 incubator for 120 h, half of the medium (100 µL) was discarded, and 100 µL of CellTiter-Glo Luminescent Cell Viability assay reagent (Promega, cat # G7570) was added to detect signal values on a BMG microplate reader. The inhibition activity of antibody on tumor cell growth was calculated by graphpad fitting based on the signal value and antibody concentration, and the results are shown in FIG. 5 and Table 15. Table 15 IC50 value of anti-CDCP1 chimeric antibody -vcMMAE conjugate on tumor cells
(ATP-based viability assays read luminescence as a measure of living cells.)

A further test relates to MCF7. The description is as above. As to conditions: MCF7 (120 h), cells that do not express CDCP1. As for the experimental part: as §1
A further test deals with MDA-MB-231. The description is as above. To be noted: MDA-MB-231 (120 h). As for the experimental part: as §1
The next test deals with PC3. The test is described as above. As to conditions: PC3 (120 h). As for the experimental part: as §1, with “[…],” for “cultured at 37 °C in a CO2 incubator for 120 h,”
The subject of a further test is HCC1806. The test is described as follows: In vitro killing by humanized antibody-vc-MMAE conjugate (CellTiter-Glo, 120 h). As for the experimental part: (§2) The colorectal cancer cells HCT116 and breast cancer cells HCC1806 were counted separately, adjusted to 3000 cells/well and plated in 96-well plates overnight. Conjugates were added at a final concentration of 200 nM to 0.000512 nM (a 5-fold dilution across 9 concentration points), totaling 200 µL, cultured at 37°C in a CO2 incubator for 120 h, half of the medium (100 µL) was discarded, and 100 µL of CellTiter-Glo Luminescent Cell Viability assay reagent (Promega, cat # G7570) was added to detect signal values on a BMG microplate reader. The inhibition activity of antibody on tumor cell growth was calculated by graphpad fitting based on the signal value and antibody concentration, and the results are shown in FIGS. 6a and 6b and Tables 19 and 20. Table 19 DAR value of anti-CDCP1 humanized antibody-vc-MMAE conjugate and its IC50 value for HCC1806

For test [2], the system named is HCT116. The test is described as above. The protocol:
as §2

For the compound `CC[C@H](C)[C@@H]([C@@H](CC(=O)N1CCC[C@H]1[C@H](OC)[C@@H](C)C(=O)N[C@H](C)[C@@H](O)c1ccccc1)OC)N(C)C(=O)[C@@H](NC(=O)[C@@H](NC)C(C)C)C(C)C` [MMAE] (H-[NMeV]V[Dil][Dolaproine]-X1), the IC50 (as a rule, the midpoint of a concentration-inhibition curve) in the test with HCT116 [1] was 0.108 nM; with MCF7, 0.0777 nM; in the test with MDA-MB-231 it was 0.168 nM; in the test with PC3, 0.00101 nM; in the test with HCC1806, 0.053 nM; in the test on HCT116 [2], 0.283 nM.
